Assay results published in US20070021451A1, “Method for preventing or treating neurologic damage after spinal cord injury” (HAMAMATSU UNIVERSITY SCHOOL OF MEDICINE, priority 2005, published 2007).

Assays:
[1] = system: Rabbit Model of Spinal Cord Ischemia; experiment: Histopathologic examination (HE staining, semiquantitative histologic score); format: in vivo, New Zealand White rabbits
Method: Twenty-six male New Zealand White rabbits weighting 2.2 to 3.0 kg were used in this experiment. Spinal cord ischemia was induced by occluding the abdominal aorta with […] for 20 minutes just distal to the renal arteries. Surgical preparation was conducted according to the method described in the literature, Terada H. et. al., J. Thorac. Cardiovasc. Surg. 2001; 122: 979-85. A 24-gauge venous catheter was placed in the marginal ear vein for drug administration. The rabbits were anesthetized with intravenous sodium pentobarbital (25 mg/kg) and allowed to breathe spontaneously. Lidocaine (0.5%) was administered at the site of the skin incision as local anesthesia. The left common carotid artery was cannulated with a 24-gauge catheter for monitoring the arterial pressure. Core body temperature was continuously monitored with a rectal probe and was maintained at 38.5° C. with the aid of heating lamp. The infrarenal abdominal aorta was exposed through a transperitoneal approach. After systemic heparinization (200 U/kg), spinal cord ischemia was induced by occluding the abdominal aorta with […] for 20 minutes just distal to the renal arteries and just above the aortic bifurcation. Then, the […] released, and the flank was closed. […] The rabbits were assigned randomly to 1 of the 4 groups and subjected to the treatment of (1) above in the following manner. The sham group (n=3) underwent the same operation without aortic occlusion. The control group (n=7) received saline (1 ml) intravenously 15 minutes before aortic occlusion. NS-7 (1 mg/kg) was administered intravenously as a bolus dose 15 minutes before aortic occlusion in group A (n=8) or just after releasing the […] onset of reperfusion) in group B (n=8). All animals were killed by means of a lethal injection of pentobarbital (200 mg/kg) 48 hours after operation. Spinal cords were quickly harvested and sectioned from the low thoracic level to the low lumbar level into the following 4 segments: low thoracic (LT=T10-T12), upper lumbar (UL=L1-L2), mid lumbar (ML=L3-L4), and low lumbar (LL=L5-L6). […]

[2] = system: Rabbit Model of Spinal Cord Ischemia; experiment: TUNEL staining of motor neurons (mid lumbar segment); format: in vivo, New Zealand White rabbits; settings: NS-7 15 minutes before ischemia or at the onset of reperfusion; P<0.05 vs control (FIG. 6)
Method: Twenty-six male New Zealand White rabbits weighting 2.2 to 3.0 kg were used in this experiment. Spinal cord ischemia was induced by occluding the abdominal aorta with […] for 20 minutes just distal to the renal arteries. Surgical preparation was conducted according to the method described in the literature, Terada H. et. al., J. Thorac. Cardiovasc. Surg. 2001; 122: 979-85. A 24-gauge venous catheter was placed in the marginal ear vein for drug administration. The rabbits were anesthetized with intravenous sodium pentobarbital (25 mg/kg) and allowed to breathe spontaneously. Lidocaine (0.5%) was administered at the site of the skin incision as local anesthesia. The left common carotid artery was cannulated with a 24-gauge catheter for monitoring the arterial pressure. Core body temperature was continuously monitored with a rectal probe and was maintained at 38.5° C. with the aid of heating lamp. The infrarenal abdominal aorta was exposed through a transperitoneal approach. […] The number of motor neurons that were positive in TUNEL staining was counted in 3 sections, and the values were averaged (Sakurai M., J. Thorac. Cardiovasc. Surg. 2000; 120: 1148-57, Lang-Lazdunski L., J. Vasc. Surg. 2003; 38: 564-75). […]

## Cc1cc(-c2ccc(F)cc2)cc(OCCCCCN2CCCCC2)n1.Cl [NS-7, 4-(4-Fluorophenyl)-2-methyl-6-(5-piperidinopentyloxy)pyridine hydrochloride]
[1]; NS-7 before ischemia or at the onset of reperfusion, mid lumbar
  Cellular damage in HE-stained sections (FIG. 3): minimal evidence of cellular damage
[1]; group A or group B, mid lumbar and low lumbar levels
  Histologic changes in the spinal cords: only slight changes
[1]; group A or group B, mid lumbar and low lumbar levels, vs control group (FIG. 4)
  Average histologic scores: significantly lower than those of the control group
[2]
  Total number of apoptotic (TUNEL-positive) motor neurons: strongly reduced
